# Reference: paper PMC8624133, “10th Trends in Medical Mycology Held on 8 to 11 October 2021, Aberdeen, Scotland, Organized by the European Confederation of Medical Mycology (ECMM)” (Journal of Fungi, 2021)
# Like-named read-outs stand apart in the source and are kept apart here. Starred links: 1 amine or outer side, 2 acyl side, 3 side chain; linkers in the order of their positions; H or OH if unused. Positions of bridges follow the written chain, without caps; N, C: chain ends. Non-standard residues stand in square brackets, D forms with d. Residues, ends and D or L forms follow the SMILES beside them. *: point of attachment. Orn(4R-OH,5R-OCH2CH2NMe3+) = C[N+](C)(C)CCO[C@@H](N[*:3])[C@H](O)C[C@H](N[*:1])C(=O)[*:2]; hTyr(3S-OH,4S-OH,3'-OSO3H) = N[C@H](C(=O)O)[C@H](O)[C@@H](O)c1ccc(O)c(OS(=O)(=O)O)c1; pTerphenylCO(4''-OnC5H11) = CCCCCOc1ccc(-c2ccc(-c3ccc(C(=O)*)cc3)cc2)cc1; Orn(4R-OH,5R-OH) = O=C([C@H](C[C@@H](O)[C@@H](O)N[*:3])N[*:1])[*:2]; hTyr(3S-OH,4S-OH) = N[C@H](C(=O)O)[C@H](O)[C@@H](O)c1ccc(O)cc1; Pro(3S-OH,4S-Me) = C[C@H]1CN[C@H](C(=O)O)[C@H]1O; X1 = CCCCCOc1ccc(-c2cc(-c3ccc(C(=O)*)cc3)no2)cc1; Gln(3R-OH) = NC(=O)C[C@@H](O)[C@H](N)C(=O)O; Hyp = O=C(O)[C@@H]1C[C@@H](O)CN1
# Assays:
# C. parapsilosis = type: cell-based, Candida parapsilosis
# C. tropicalis = type: cell-based, Candida tropicalis
# C. krusei [1] = type: cell-based, Candida krusei
# C. fermentati = test: EUCAST E. Def 7.3.2 microdilution; type: cell-based, Candida fermentati; conditions: n = 2
# C. krusei [2] = test: ARIA surveillance, CLSI M27 broth microdilution; type: cell-based, Candida krusei
# Method: Materials & Methods: Isolates (n = 730) were collected and re-identified by MALDI-TOF or molecular methods. […] Percentage susceptibility (%S) or wild-type (%WT) were calculated according to CLSI breakpoints (CLSI supplement M60) or epidemiological cut-off values (CLSI supplement M59), respectively.
# [3] = tested on: invasive C. glabrata strains; test: YeastOne Sensititre colorimetric broth microdilution; type: cell-based, Candida glabrata; conditions: Nakaseomyces glabratus
# Method: Material and Method: Thirty-six clinical isolates of invasive C. glabrata strains were analyzed in this study. Minimum inhibitory concentrations (MICs) were determined using colorimetric broth microdilution (YeastOneSensititre, Trek diagnostics). Genomic DNA was isolated using Qiagen DNA extraction Kit. The FKS1 and FKS2 gene fragment were amplified and PCR products were purified prior to sequencing. Double-strand sequencing of PCR products was performed using Sanger sequencing methodology. Sequences were analyzed with MEGA-6 software to identify specific SNP combination against wild-type sequences of C. glabrata.
# Candida auris isolates = test: microbe, parasite or virus in culture; type: cell-based
# Other species of Candida = type: cell-based, Candida spp.
# Candida albicans (CA) = test: Post-antifungal effect (PAFE); type: cell-based; conditions: CA clinical isolate; all concentrations (1×, 4×, 16× bMIC), 1 h exposure
# Method: (§1) Materials &Methods: Six Candida spp. […] For PAFE determinations, antifungal concentrations of 1×, 4×, and 16× bMiC were used. A starting inoculum of 1–[…] CFU/mLwas added to RPMl with the antifungal agent. Post 1 h exposure, cells were washed 3 times and resuspended in 10 mL of pre-warmed RPMl. Colony counts were performed at to, 1 h before and after final washt t2, t4, t8, t12, t24 and t48 h. PAFE was calculated as the difference in time required for isolates to rrow1-logio following the final cell wash compared to the growth control.
# C. glabrata = type: cell-based, Candida glabrata
# C. albicans = type: cell-based, Candida albicans
# [4] = tested on: C. albicans and C. glabrata; test: FUNGINOS candidemia survey, susceptibility according to CLSI; type: cell-based; conditions: share of isolates
# C. glabrata (CGLA) = test: Post-antifungal effect (PAFE); type: cell-based, Candida glabrata
# Method: as §1
# C. parapsilosis (CPRP) = test: Post-antifungal effect (PAFE); type: cell-based, Candida parapsilosis
# Method: as §1
# C. guilliermondii = test: EUCAST E. Def 7.3.2 microdilution; type: cell-based, Candida guilliermondii; conditions: n = 62
# [5] = tested on: C. auris clinical strains; test: organism not typed; type: cell-based, Candida auris; conditions: range, 78 strains from patients with COVID-19
# [6] = Open-label single-dose study in hepatic impairment; type: in vivo, human
# Method: Materials &Methods: The safety, tolerability, and PK of rezafungin in subjects with moderate (Group 1a) and severe (Group 2a) HI (Child-Pugh class Band C) and healthysubjects (HS, Groups 1b and 2b) was investigated in this open-label, single-dose study. Each Hl group enrolled was matched to a separate HS group (n = 8 each 32 total) by age, sex and body mass index (BMI) and received a single 400-mg intravenous 1 h infusion of RZF.Plasma PK sampling was performed at various time points through 336 h post- dose. Rezafungin PKparameters were derived using non-compartmental analysis. Safety and tolerability were assessed throughout the study.
# [7] = both CGLA strains, all concentrations
smiles,measurement,setting,value
"CCCCCOc1ccc(-c2cc(-c3ccc(C(=O)N[C@H]4C[C@@H](O)[C@@H](O)NC(=O)[C@@H]5[C@@H](O)[C@@H](C)CN5C(=O)[C@H]([C@H](O)CC(N)=O)NC(=O)[C@H]([C@H](O)[C@@H](O)c5ccc(O)c(OS(=O)(=O)O)c5)NC(=O)[C@@H]5C[C@@H](O)CN5C(=O)[C@H]([C@@H](C)O)NC4=O)cc3)no2)cc1 [micafungin] (X1-[Orn(4R-OH,5R-OH)]T[Hyp][hTyr(3S-OH,4S-OH,3'-OSO3H)][Gln(3R-OH)][Pro(3S-OH,4S-Me)]; lactam 1-C)","I (intermediate) isolates, n (%)",C. parapsilosis,0 (0%)
same,"R (resistant) isolates, n (%)",C. parapsilosis,0 (0%)
same,"S (sensitive) isolates, n (%)",C. parapsilosis,132 (100%)
same,"I (intermediate) isolates, n (%)",C. tropicalis,0 (0%)
same,"R (resistant) isolates, n (%)",C. tropicalis,0 (0%)
same,"S (sensitive) isolates, n (%)",C. tropicalis,44 (100%)
same,"S (sensitive) isolates, n (%)",C. krusei [1],3 (100%)
same,GM,C. fermentati,0.125 µg/mL
same,MIC Range,C. fermentati,0.125 µg/mL
same,susceptibility,"C. krusei [2]; Argentina, Australia, Italy and Taiwan",100%
same,susceptibility,C. krusei [2]; USA,73.3%
same,MIC,"[3]; 36 clinical isolates, read-out: median (Min–Max) MIC",0.015 µg/mL
same,MIC,[3]; isolate with FKS2 I661T,0.015 µg/mL
same,categorised as resistant on MIC,Candida auris isolates; CDC guidelines,1.4%
same,MIC,"Candida auris isolates; Candidozyma auris, […], IQR given, read-out: median MIC",0.12 µg/mL
same,"I (intermediate) isolates, n (%)",Other species of Candida,0 (0%)
same,"R (resistant) isolates, n (%)",Other species of Candida,0 (0%)
same,"S (sensitive) isolates, n (%)",Other species of Candida,18 (100%)
same,PAFE,Candida albicans (CA),> 14.9 h
same,"I (intermediate) isolates, n (%)",C. glabrata,0 (0%)
same,"R (resistant) isolates, n (%)",C. glabrata,0 (0%)
same,"S (sensitive) isolates, n (%)",C. glabrata,55 (100%)
same,"I (intermediate) isolates, n (%)",C. albicans,1 (0.7%)
same,"R (resistant) isolates, n (%)",C. albicans,1 (0.7%)
same,"S (sensitive) isolates, n (%)",C. albicans,136 (98.6%)
same,non-susceptibility,[4],2%
same,PAFE,"C. glabrata (CGLA); CGLA #3 isolate, 1× bMIC",20.4 h
same,PAFE,C. glabrata (CGLA); [7],> 40 h
same,PAFE,"C. parapsilosis (CPRP); CPRP ATCC 22019, 1× and 4× bMIC",no micafungin PAFE was observed
same,PAFE,"C. parapsilosis (CPRP); CPRP ATCC 22019, 16× bMIC",1.8 h
same,PAFE,"C. parapsilosis (CPRP); CPRP clinical isolate, 1× bMIC",1.6 h
same,PAFE,"C. parapsilosis (CPRP); CPRP clinical isolate, 4× bMIC",7.4 h
same,PAFE,"C. parapsilosis (CPRP); CPRP clinical isolate, 16× bMIC",31.3 h
same,MIC50,C. guilliermondii; Meyerozyma guilliermondii,0.25 µg/mL
same,MIC90,C. guilliermondii; Meyerozyma guilliermondii,0.5 µg/mL
same,GM,C. guilliermondii,0.228 µg/mL
same,MIC Range,C. guilliermondii,0.008 to 0.5 µg/mL
same,MIC,[5],0.06 to 1 µg/mL
"CCCCCOc1ccc(-c2ccc(-c3ccc(C(=O)N[C@H]4C[C@@H](O)[C@@H](OCC[N+](C)(C)C)NC(=O)[C@@H]5[C@@H](O)[C@@H](C)CN5C(=O)[C@H]([C@@H](C)O)NC(=O)[C@H]([C@H](O)[C@@H](O)c5ccc(O)cc5)NC(=O)[C@@H]5C[C@@H](O)CN5C(=O)[C@H]([C@@H](C)O)NC4=O)cc3)cc2)cc1 [rezafungin, Rezafungin] ({pTerphenylCO(4''-OnC5H11)}-[Orn(4R-OH,5R-OCH2CH2NMe3+)]T[Hyp][hTyr(3S-OH,4S-OH)]T[Pro(3S-OH,4S-Me)]; lactam 1-C)",PAFE,Candida albicans (CA),> 14.9 h
same,PAFE,"C. glabrata (CGLA); CGLA #3 isolate, 1× bMIC",> 46.7 h
same,PAFE,C. glabrata (CGLA); [7],> 40 h
same,PAFE,"C. parapsilosis (CPRP); CPRP ATCC 22019, all concentrations",> 40 h
same,"AEs, moderate hepatic impairment group",[6]; all mild severity,5
same,"AEs, severe hepatic impairment group","[6]; all moderate severity, unrelated",3
same,"AEs, all groups",[6]; in 7 of 32 subjects,9
same,mean exposure lower than in healthy subjects,"[6]; moderate or severe HI, single 400-mg intravenous 1 h infusion, AUC, Cmax",~ 30%
same,mean half-life,"[6]; range across groups, non-compartmental analysis",110 to 124 h
